According to US20180020662A1, “Substituted 1-cycloalkyl-2-oxotetrahydroquinolin-6-ylsulfonamides or salts thereof and use thereof to increase stress tolerance in plants” (BAYER CROPSCIENCE AKTIENGESELLSCHAFT, priority 2015, published 2018):

Legend:
Triticum aestivum = assay: Drought stress test on potted crop plants, spray application, visual scoring against stressed control plants; assay type: in vivo; design: key: 0: no positive effect; +: slight positive effect; ++: clear positive effect; +++: strong positive effect; conditions: mean of at least three repeats
Description: (§1) Seeds of monocotyledonous and dicotyledonous crop plants were sown in sandy loam in plastic pots, covered with soil or sand and cultivated in a greenhouse under good growth conditions. The test plants are treated at the early leaf stage (BBCH10-BBCH13). To assure uniform water supply before commencement of stress, the potted plants were supplied with water by dam irrigation prior to substance application. The inventive compounds were first formulated as wettable powders (WP) or dissolved in a solvent mixture. The further dilution was effected with water supplemented with 0.2% wetting agent (e.g. agrotin). The finished spray liquor was sprayed onto the green parts of the plant at an equivalent water application rate of 600 I/ha. Substance application was followed immediately by stress treatment of the plants. Drought stress was induced by gradual drying out under the following conditions: “Day”: 14 hours with illumination at […]. “Night”: 10 hours without illumination at […]. The duration of the respective stress phases was guided mainly by the condition of the stressed control plants. It was ended (by re-irrigating and transfer to a greenhouse with good growth conditions) as soon as irreversible damage was observed on the stressed control plants. The end of the stress phase was followed by an about 4-7-day recovery phase, during which the plants were once again kept under good growth conditions in a greenhouse. The duration of the recovery phase was guided mainly by when the trial plants had attained a state which enabled visual scoring of potential effects, and was therefore variable. Once this juncture had been reached, the appearance of the plants treated with test substances was recorded in comparison to the stressed control plants by the following categories: • 0 no positive effect • + slight positive effect • ++ clear positive effect • +++ strong positive effect In order to rule out any influence on the effects observed by any fungicidal or insecticidal action of the test compounds, it was additionally ensured that the tests proceeded without fungal infection or insect infestation. The values reported in tables A-1 and A-2 below are mean values of the results from at least three repeats. Effects of selected compounds of the general formula (I) under drought stress according to the following tables A-1 and A-2: In the above tables: BRSNS =Brassica napus TRZAS =Triticum aestivum

Brassica napus = assay: as above; assay type: in vivo; design: key: 0: no positive effect; +: slight positive effect; ++: clear positive effect; +++: strong positive effect; conditions: mean of at least three repeats
Description: as §1

[1] = target: T1, phosphatase ABI1 via the co-regulator RCAR11/PYR1 (Arabidopsis thaliana, UniProt O49686+P49597); assay: In vitro assay: inhibition of ABI1 dephosphorylation of 4-methylumbelliferyl phosphate (MUP), fluorescence; assay type: biochemical; conditions: concentration of 5 mM of the substance in DMSO and water, 35° C., 20 minutes
T1 sequence (O49686 1-191): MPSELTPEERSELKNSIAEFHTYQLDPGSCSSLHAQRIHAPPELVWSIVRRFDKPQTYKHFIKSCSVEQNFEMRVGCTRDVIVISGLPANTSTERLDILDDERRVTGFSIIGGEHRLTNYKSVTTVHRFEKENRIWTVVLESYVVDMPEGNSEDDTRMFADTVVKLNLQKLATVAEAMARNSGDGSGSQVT
T1 sequence (P49597 1-434): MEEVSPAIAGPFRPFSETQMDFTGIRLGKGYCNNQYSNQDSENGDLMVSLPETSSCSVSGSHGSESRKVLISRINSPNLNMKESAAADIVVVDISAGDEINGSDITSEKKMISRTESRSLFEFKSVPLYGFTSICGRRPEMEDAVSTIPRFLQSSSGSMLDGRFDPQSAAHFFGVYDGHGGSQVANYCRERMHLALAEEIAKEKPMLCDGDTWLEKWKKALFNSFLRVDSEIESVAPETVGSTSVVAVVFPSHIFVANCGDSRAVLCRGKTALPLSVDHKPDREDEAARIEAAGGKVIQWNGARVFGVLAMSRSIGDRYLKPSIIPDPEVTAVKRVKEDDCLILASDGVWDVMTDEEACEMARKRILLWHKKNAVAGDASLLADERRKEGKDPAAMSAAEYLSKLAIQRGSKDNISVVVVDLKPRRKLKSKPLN
Text: Effects of the phytohormone abscisic acid (ABA) on the behavior of plants under abiotic stress and the mechanism of action of ABA are described in the literature (cf. Abrams et al., WO97/23441, Park et al. Science, 2009, 324, 1068; Grill et al. Science, 2009, 324, 1064; Tanokura et al. Biophysics, 2011, 7, 123; Schroeder et al. Plant J. 2010, 61, 290). Therefore, it is possible with the aid of a suitable in vitro test system to derive a correlation between the action of ABA and the stress response of a plant under abiotic stress. In the event of water deficiency (drought stress), plants form the phytohormone abscisic acid (ABA). This binds, along with a co-regulator (Regulatory Component of ABA-Receptor=RCAR according to Grill et al. Science, 2009, 324, 1064 or PYR/PYL according to Cutler et al. Science, 2009, 324, 1068), to a phosphatase (e.g. ABI1, a type 2C protein phosphatase, also abbreviated to PP2C) and inhibits its activity. As a result, a “downstream” kinase (e.g. SnRK2) is no longer dephosphorylated. This kinase, which is thus active, via phosphorylation of transcription factors (e.g. AREB/ABF, cf. Yoshida et al Plant J. 2010, 61, 672), switches on a genetic protection program to increase drought stress tolerance. The assay described hereinafter utilizes the inhibition of the phosphatase ABI1 via the co-regulator RCAR11/PYR1 aus Arabidopsis thaliana. For the determination of activity, the dephosphorylation of 4-methylumbelliferyl phosphate (MUP) was measured at 460 nm. The in vitro assay was conducted in Greiner 384-well PS microplates F-well, using two controls: a) 0.5% dimethyl sulfoxide (DMSO) and b) 5 μM abscisic acid (ABA). The assay described here was generally conducted with substance concentrations of the appropriate chemical test substances in a concentration range of 0.1 μM to 100 μM in a solution of DMSO and water. The substance solution thus obtained, if necessary, was stirred with esterase from porcine liver (EC 3.1.1.1) at room temperature for 3 h and centrifuged at 4000 rpm for 30 min. A total volume of 45 μl was introduced into each cavity of the microplate, having the following composition: • 1) 5 μl of substance solution, i.e. a) DMSO 5% or b) abscisic acid solution or c) the corresponding example compound of the general formula (I) dissolved in 5% DMSO. • 2) 20 μl of enzyme buffer mix, composed of a) 40% by vol. of enzyme buffer (10 ml contain equal proportions by volume of 500 mM Tris-HCl pH 8, 500 mM NaCl, 3.33 mM MnCl2, 40 mM dithiothreitol (DTT)), b) 4% by vol. of ABI1 dilution (protein stock solution was diluted so as to give, after addition, a final concentration in the assay of 0.15 μg ABI1/well), c) 4% by vol. of RCAR11 dilution (enzyme stock was diluted so as to give, on addition of the dilution to the enzyme buffer mix, a final concentration in the assay of 0.30 μg enzyme/well), d) 5% by vol. of Tween20 (1%), e) 47% by vol. H2O bi-dist. • 3) 20 μl of substrate mix, composed of a) 10% by vol. of 500 mM Tris-HCl pH 8, b) 10% by vol. of 500 mM NaCl, c) 10% by vol. of 3.33 mM MnCl2, d) 5% by vol. of 25 mM MUP, 5% by vol. of Tween20 (1%), 60% by vol. of H2O bi-dist.
Enzyme buffer mix and substrate mix were made up 5 minutes prior to the addition and warmed to a temperature of 35° C. On completion of pipetting of all the solutions and on completion of mixing, the plate was incubated at 35° C. for 20 minutes. Finally, a relative fluorescence measurement was made at 35° C. with a BMG Labtech “POLARstar Optima” microplate reader using a 340/10 nm excitation filter and a 460 nm emission filter. The efficacy of the compounds of the general formula (I) is reported in the table which follows using abscisic acid […] as comparative substance (no. 38) according to the following classification: ++++(inhibition ≧90%), +++(90% >inhibition ≧70%), ++(70% >inhibition ≧50%), +(50% >inhibition ≧30%). […]

Row | ABI1 inhibition [1] | Compound | Effect (TRZAS) (Triticum aestivum; dosage 250 g/ha) | Effect (BRSNS) (Brassica napus; dosage 250 g/ha) | Effect (TRZAS) (Triticum aestivum; dosage 25 g/ha) | Effect (BRSNS) (Brassica napus; dosage 25 g/ha)
1 | ++++ (inhibition ≧90%) | CC1(N2C(=O)CCc3cc(NS(=O)(=O)Cc4ccc(Cl)cc4)ccc32)CC1 [A1-165, 1-(4-Chlorophenyl)-N-[1-(1-methylcyclopropyl)-2-oxo-1,2,3,4-tetrahydroquinolin-6-yl]methanesulfonamide] | + | ++ |  | 
2 | +++ (90% >inhibition ≧70%) | CC1(N2C(=O)CCc3cc(NS(=O)(=O)Cc4cccc(Cl)c4)ccc32)CC1 [A1-166] |  | ++ |  | 
3 | ++++ (inhibition ≧90%) | CC1(N2C(=O)CCc3cc(NS(=O)(=O)Cc4ccc(C#N)cc4)ccc32)CC1 [A1-181] | + | ++ |  | 
4 | ++++ (inhibition ≧90%) | O=C1CCc2cc(NS(=O)(=O)Cc3ccc(F)cc3)ccc2N1C1(C2CC2)CC1 [A3-158] | + |  |  | 
5 | ++++ (inhibition ≧90%) | O=C1CCc2cc(NS(=O)(=O)Cc3ccc(Cl)cc3)ccc2N1C1(C2CC2)CC1 [A3-165] | + |  |  | 
6 | ++++ (inhibition ≧90%) | N#Cc1ccc(CS(=O)(=O)Nc2ccc3c(c2)CCC(=O)N3C2(C3CC3)CC2)cc1 [A3-181] |  |  | + | 
7 |  | N#Cc1ccc(S(=O)(=O)Nc2ccc3c(c2)CCC(=O)N3C2CC2C2CC2)cc1 (centres unmarked) [A16-45] |  |  | + | ++
8 | ++++ (inhibition ≧90%) | CC1CC(N2C(=O)CCc3cc(NS(=O)(=O)Cc4ccc(F)cc4)ccc32)C1 (centres unmarked) [A26-158] |  |  |  | +
9 |  | N#Cc1ccc(S(=O)(=O)Nc2ccc3c(c2)CCC(=O)N3C23CC(C2)C3)cc1 [A30-45] | + |  |  | 
10 | +++ (90% >inhibition ≧70%) | Cc1cccc(CS(=O)(=O)Nc2ccc3c(c2)CCC(=O)N3C23CC(C2)C3)c1 [A30-153] |  | + |  | 
11 | ++++ (inhibition ≧90%) | O=C1CCc2cc(NS(=O)(=O)Cc3ccc(F)cc3)ccc2N1C12CC(C1)C2 [A30-158] |  |  | + | 
12 | ++++ (inhibition ≧90%) | O=C1CCc2cc(NS(=O)(=O)Cc3ccc(Cl)cc3)ccc2N1C12CC(C1)C2 [A30-165] | ++ |  |  | 
13 | +++ (90% >inhibition ≧70%) | O=C1CCc2cc(NS(=O)(=O)Cc3ccc(Cl)cc3)ccc2N1C1CC1C(F)(F)F (centres unmarked) [A37-165] | ++ |  |  | 
14 |  | CC1CCC1N1C(=O)CCc2cc(NS(=O)(=O)c3ccc(C#N)cc3)ccc21 (centres unmarked) [A38-45] | + |  |  | 
15 |  | N#Cc1ccc(S(=O)(=O)Nc2ccc3c(c2)CCC(=O)N3C2CC(F)(F)C2)cc1 [A39-45] | ++ |  |  | 
